Values joined by “and” are separate entries in the source; they are usually repeats but may differ in a detail not shown here. Equal values may be shown once. Read-outs that look alike come from different tables or passages of the source.
Legend:
[1] = tested on: Colletotrichum destructivum; assay type: cell-based; design: key to Plate antimicrobial activity test Colletotrichum destructivum, level: a case where hyphae extended to the entire well and no antimicrobial activity was found is defined as “level 0,”; a case where hyphae extended to less than a half of the well and thus the peptide inhibited the growth of the hyphae is defined as “level 1,”; a case where ungerminated spores were present and the peptide partially inhibited the germination is defined as “level 2,”; a case where all spores were ungerminated and the peptide completely inhibited the germination is defined as “level 3.”; conditions: 25° C. for 1 day or 2 days, microscopic observation
[2] = tested on: Colletotrichum destructivum; experiment: Colletotrichum destructivum leaf inoculation test (Chinese cabbage leaf); assay type: in vivo; conditions: Chinese cabbage leaf, 25° C. for 4 days, lesions by visual inspection, symbols ◯/Δ/X not defined
Experimental: In the present example, a suspension comprising Colletotrichum destructivum and a peptide to be tested was dropped on a plant leaf, and lesions were then observed by visual inspection to evaluate the antimicrobial activity of the tested peptide. First, the pores of Colletotrichum destructivum were suspended in water to result in a spore concentration of 5×10^5 spores/ml, so as to prepare a water suspension of spores. Subsequently, a peptide to be tested (TsORF6-1) was added to the water suspension of spores, so that the final concentration of the peptide to be tested became 0 μM, 1 μM, 10 μM or 100 μM. Thereafter, 10 μl each of the water suspension of spores containing the peptide to be tested was dropped on the front side and the back side of the leaf of Chinese cabbage (variety name: “Kigokoro 85”). In this condition, incubation was carried out at 25° C. for 4 days. Thereafter, the front and back sides of the leaf were observed by visual inspection.

[3] = tested on: Fusarium oxysporum; assay type: cell-based; design: key to Plate antimicrobial activity test Fusarium oxysporum, level: a case where hyphae extended to the entire well and no antimicrobial activity was found is defined as “level 0,”; a case where hyphae extended to less than a half of the well and thus the peptide inhibited the growth of the hyphae is defined as “level 1,”; a case where ungerminated spores were present and the peptide partially inhibited the germination is defined as “level 2,”; a case where all spores were ungerminated and the peptide completely inhibited the germination is defined as “level 3.”
[4] = tested on: Colletotrichum orbiculare; assay type: cell-based; design: key to Plate antimicrobial activity test Colletotrichum orbiculare, level: a case where hyphae extended to the entire well and no antimicrobial activity was found is defined as “level 0,”; a case where hyphae extended to less than a half of the well and thus the peptide inhibited the growth of the hyphae is defined as “level 1,”; a case where ungerminated spores were present and the peptide partially inhibited the germination is defined as “level 2,”; a case where all spores were ungerminated and the peptide completely inhibited the germination is defined as “level 3.”; conditions: 25° C. for 1 day or 2 days, microscopic observation
[5] = tested on: Botrytis cinerea; assay type: cell-based; design: key to Plate antimicrobial activity test Botrytis cinerea, level: a case where hyphae extended to the entire well and no antimicrobial activity was found is defined as “level 0,”; a case where hyphae extended to less than a half of the well and thus the peptide inhibited the growth of the hyphae is defined as “level 1,”; a case where ungerminated spores were present and the peptide partially inhibited the germination is defined as “level 2,”; a case where all spores were ungerminated and the peptide completely inhibited the germination is defined as “level 3.”; conditions: 25° C. for 1 day or 2 days, microscopic observation
[6] = tested on: plant pathogenic filamentous fungi; assay type: cell-based; conditions: Table 3
[7] = tested on: Pyricularia oryzae; assay type: cell-based; design: key to Plate antimicrobial activity test Pyricularia oryzae, level: a case where hyphae extended to the entire well and no antimicrobial activity was found is defined as “level 0,”; a case where hyphae extended to less than a half of the well and thus the peptide inhibited the growth of the hyphae is defined as “level 1,”; a case where ungerminated spores were present and the peptide partially inhibited the germination is defined as “level 2,”; a case where all spores were ungerminated and the peptide completely inhibited the germination is defined as “level 3.”; conditions: 25° C. for 1 day or 2 days, microscopic observation

| Substance | Plate antimicrobial activity test Colletotrichum destructivum, level ([1]; peptide 1 μM) | Plate antimicrobial activity test Colletotrichum destructivum, level ([1]; peptide 10 μM) | Plate antimicrobial activity test Colletotrichum destructivum, level ([1]; peptide 100 μM) | Leaf inoculation test Chinese cabbage/Colletotrichum destructivum ([2]; peptide 100 μM) | Plate antimicrobial activity test Fusarium oxysporum, level [3] | Plate antimicrobial activity test Colletotrichum orbiculare, level ([4]; peptide 1 μM) | Plate antimicrobial activity test Colletotrichum orbiculare, level ([4]; peptide 10 μM) | Plate antimicrobial activity test Colletotrichum orbiculare, level ([4]; peptide 100 μM) | Plate antimicrobial activity test Botrytis cinerea, level ([5]; peptide 1 μM) | Plate antimicrobial activity test Botrytis cinerea, level ([5]; peptide 10 μM) | Plate antimicrobial activity test Botrytis cinerea, level ([5]; peptide 100 μM) | germination inhibitory activity against plant pathogenic filamentous fungi, result in words [6] | Plate antimicrobial activity test Pyricularia oryzae, level ([7]; peptide 1 μM) | Plate antimicrobial activity test Pyricularia oryzae, level ([7]; peptide 10 μM) | Plate antimicrobial activity test Pyricularia oryzae, level ([7]; peptide 100 μM) | Leaf inoculation test Chinese cabbage/Colletotrichum destructivum ([2]; peptide 10 μM) |
| --- | --- | --- | --- | --- | --- | --- | --- | --- | --- | --- | --- | --- | --- | --- | --- | --- |
| KVMIVVKT (listed as Solanum lycopersicum) [TsORF6-1-8aa-2, partial peptide of TsORF6-1, 8 amino acid residues] | 0 | 0 | 2 | ◯ | 3 and 0 | 0 | 0 | 2 | 0 | 0 | 3 | extremely excellent germination inhibitory activity | 0 | 0 | 2 |  |
| MKVMI (listed as Solanum lycopersicum) [TsORF6-1-5aa-1, partial peptide of TsORF6-1, 5 amino acid residues] | 0 | 0 | 1 | ◯ | 0 | 0 | 0 | 1 | 0 | 0 | 1 | extremely excellent germination inhibitory activity | 0 | 0 | 1 |  |
| MKVMIVVK (listed as Solanum lycopersicum) [TsORF6-1-8aa-1, partial peptide of TsORF6-1, 8 amino acid residues] | 0 | 0 | 3 | ◯ | 3 and 0 | 0 | 0 | 3 | 0 | 0 | 2 | extremely excellent germination inhibitory activity | 0 | 0 | 3 | Δ |
| VAKMM (listed as Solanum lycopersicum) [TsORF6-1-5aa-16, partial peptide of TsORF6-1, 5 amino acid residues] | 0 | 0 | 0 | ◯ | 0 | 0 | 0 | 0 | 0 | 0 | 0 | extremely excellent germination inhibitory activity | 0 | 0 | 0 |  |
| VMIVV (listed as Solanum lycopersicum) [TsORF6-1-5aa-3, partial peptide of TsORF6-1, 5 amino acid residues] | 0 | 0 | 1 | ◯ | 0 | 0 | 0 | 1 | 0 | 0 | 1 | extremely excellent germination inhibitory activity | 0 | 0 | 0 |  |
| VMIVVKTK (listed as Solanum lycopersicum) [TsORF6-1-8aa-3, partial peptide of TsORF6-1, 8 amino acid residues] | 0 | 0 | 3 | ◯ | 3 and 0 | 0 | 0 | 3 | 0 | 0 | 3 | extremely excellent germination inhibitory activity | 0 | 0 | 3 | ◯ |
